Three compounds from patent US11447525B2 (NIIGATA UNIVERSITY, priority 2018, dated 2022) can be followed below.

A short description of this data set: Degradation test by human blood plasma, MALDI-TOFMS analysis. Format: in vitro ADME. The following applies: 50% by mass human blood plasma. How it is done: Specifically, a peptide composed of the amino acid sequence represented by SEQ ID NO: 1 (hereafter sometimes referred to as “PCPP11”) was added to human blood plasma having a concentration of 50% by mass, the mixture was sampled immediately after starting the degradation test (after 0 minutes), and then after 5 minutes, after 10 minutes, after 20 minutes, after 30 minutes, after 60 minutes and after 120 minutes, and the samples were analyzed by MALDI-TOFMS (Matrix Assisted Laser Desorption/Ionization-Time Of Flight Mass Spectrometry). In Table 2, “UK” is an abbreviation for “unknown”. Further, the No. shown for each peptide in Table 2 corresponds with the numerical value recorded on the peaks of the graphs shown in FIG. 1.
Each of the peptides described above was added to human blood plasma having a concentration of 50% by mass, the resulting mixture was sampled immediately after starting the degradation test (after 0 minutes), and then after 5 minutes, after 10 minutes, after 20 minutes, after 30 minutes, after 60 minutes and after 120 minutes, and the samples were analyzed by MALDI-TOFMS. The results are shown in FIGS. 2 to 6 and Tables 4 to 6 shown below. Furthermore, the data for the degradation test by human blood plasma using PCPP11 from Reference Example 1 and the degradation tests by human blood plasma using each of the above peptides are collated in FIG. 7 and Table 7. The SEQ ID NO listed for the FAM-labeled peptide represents the SEQ ID NO of the peptide portion. Further, the No. shown for each peptide in Tables 4 to 6 corresponds with the numerical value recorded on the peaks of the graphs shown in FIGS. 2 to 6. In each table, in those cases where the numerical values are shown separated into an upper row and a lower row, the upper row value indicates the proportion (%) of peak area for two or more peptides relative to the total peak area in the MALDI-TOFMS analysis. On the other hand, the lower row value indicates the proportion (%) of each peptide when the peak area for the two or more peptides is deemed to be 100%. Moreover, for example, for the peptide No. 9 shown in Table 4, the left-side “70.0%” indicates the proportion (%) of the peptide No. 9 when the total peak area for the peptides No. 9 to 11 is deemed to be 100%, whereas the right-side “65%” indicates the proportion (%) of the peptide No. 9 relative to the total peak area in the MALDI-TOFMS analysis. This system is also used in the following tables.

Non-standard residues stand in square brackets, D forms with d. Residues, ends and D or L forms follow the SMILES beside them. No end group written: not given here. NMeR = CN[C@@H](CCCNC(=N)N)C(=O)O

For the compound `C[C@@H](O)[C@H](NC(=O)[C@@H](NC(=O)[C@@H]1CCCN1C(=O)[C@H](CCCNC(=N)N)NC(=O)[C@H](CCCNC(=N)N)NC(=O)CNC(=O)[C@@H]1CCCN1C(=O)[C@H](CCCCN)NC(=O)[C@H](Cc1c[nH]cn1)NC(=O)[C@H](Cc1c[nH]c2ccccc12)NC(=O)[C@@H](NC(=O)[C@@H](NC(=O)[C@@H]1CCCN1C(=O)[C@H](CCCNC(=N)N)N(C)C(=O)[C@@H](N)CCCNC(=N)N)[C@@H](C)O)[C@@H](C)O)[C@@H](C)O)C(=O)N[C@@H](Cc1c[nH]c2ccccc12)C(=O)N[C@@H](Cc1c[nH]cn1)C(=O)N[C@@H](CCCCN)C(=O)N1CCC[C@H]1C(=O)O` [No. 18] (H-R[NMeR]PTTWHKPGRRPTTWHKP-OH; N-terminus and C-terminus assumed), the “degradation resistance compared with the stand-alone PCPP11 and the FAM-PCPP11” value is “superior degradation resistance”.

For RRPTTWHKPGRRPTTWHKP [No. 9], the “degradation resistance compared with the stand-alone PCPP11 and the FAM-PCPP11” value was “superior degradation resistance”.

Regarding `C[C@H](O)[C@@H](NC(=O)[C@@H](Cc1c[nH]c2ccccc12)NC(=O)[C@@H](Cc1c[nH]cn1)NC(=O)[C@@H](CCCCN)NC(=O)[C@H]1CCCN1C(=O)CNC(=O)[C@@H]1CCCN1C(=O)[C@H](CCCCN)NC(=O)[C@H](Cc1c[nH]cn1)NC(=O)[C@H](Cc1c[nH]c2ccccc12)NC(=O)[C@@H](NC(=O)[C@@H](NC(=O)[C@@H]1CCCN1C(=O)[C@H](CCCNC(=N)N)N(C)C(=O)[C@@H](N)CCCNC(=N)N)[C@@H](C)O)[C@@H](C)O)C(=O)N[C@@H](C(=O)N1CCC[C@@H]1C(=O)N[C@H](CCCNC(=N)N)C(=O)N[C@H](CCCNC(=N)N)C(=O)O)[C@H](C)O` [compound 19] (H-R[NMeR]PTTWHKPG[dP][dK][dH][dW][dT][dT][dP][dR][dR]-OH; N-terminus and C-terminus assumed), for the setting “5 min, read-out: degradation resistance (proportion of the peptide retained without degradation)”, the remaining at 5 min worked out at 100%. Moreover, for the setting “10 min, read-out: degradation resistance (proportion of the peptide retained without degradation)”, the remaining at 10 min is 100%. The remaining at 20 min (20 min, read-out: degradation resistance (proportion of the peptide retained without degradation)) was 100%. In addition, the remaining at 0.5 h (30 min, read-out: degradation resistance (proportion of the peptide retained without degradation)) turned out to be 100%. Further, the remaining at 1 h (60 min, read-out: degradation resistance (proportion of the peptide retained without degradation)) was 100%. Where the note is “120 min, read-out: degradation resistance (proportion of the peptide retained without degradation)”, the remaining at 2 h stood at 100%. Also, the “degradation resistance (proportion of the peptide retained without degradation)” value (Start) is 100%.
